Measurements from patent US8586611B2 (priority 2005, dated 2013).

Legend:
Assay type in all cases: in vivo
Plasmopara viticola = experiment: Test B: grape downy mildew, spray 24 h after inoculation (disease rating, 100 = 100% disease control)
How it was run: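 Grape seedlings were inoculated with Plasmopara viticola and held 24 h saturated at 20 °C, then sprayed to run-off with compound suspension (acetone/water with 250 ppm Trem 014; 200 ppm ≈ 500 g/ha). After 5 days at 20 °C and 24 h saturation, disease was rated from 0 to 100% control versus untreated.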

[1] = tested on: Pseudoperonospora cubensis; experiment: Test A: cucumber downy mildew, spray the day before inoculation (disease rating, 100 = 100% disease control)
Text: The test compounds were first dissolved in acetone in an amount equal to 3% of the final volume and then suspended at the desired concentration (in ppm) in acetone and purified water (50/50 mix by volume) containing 250 ppm of the surfactant Trem® 014 (polyhydric alcohol esters). The resulting test suspensions were then used in tests A-E. Spraying a 200 ppm test suspension to the point of run-off on the test plants was the equivalent of a rate of 500 g/ha.
The test suspension was sprayed to the point of run-off on cucumber seedlings. The following day the seedlings were inoculated with a spore suspension of Pseudoperonospora cubensis (the causal agent of cucumber downy mildew) and incubated in a saturated atmosphere at 20° C. for 24 h, and then moved to a growth chamber at 20° C. for 6 days, after which disease ratings were made.
Results for Tests A-F are given in Table A. In the table, a rating of 100 indicates 100% disease control and a rating of 0 indicates no disease control (relative to the controls). A dash (-) indicates no test results.

[2] = tested on: Erysiphe graminis f. sp. tritici; experiment: Test E: wheat powdery mildew, spray the day before inoculation (disease rating, 100 = 100% disease control)
How it was run: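 Wheat seedlings sprayed to run-off with compound suspended in acetone/water 50/50 with 250 ppm Trem 014 (200 ppm equivalent to 500 g/ha); inoculated next day with Erysiphe graminis f. sp. tritici spore dust. Kept 7 days at 20° C, then rated 0–100% disease control versus controls.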

Phytophthora infestans [3] = experiment: whole plant or invertebrate; conditions: tomato late blight
Phytophthora infestans [4] = experiment: whole plant or invertebrate; conditions: tomato late blight; spray 17 h after inoculation; tested at 40 ppm
[5] = spray 24 h after inoculation, compounds without asterisk (not 40 or 10 ppm)
[6] = spray the day before inoculation, compounds without asterisk (not 40 or 10 ppm)
[7] = spray the day before inoculation, tested at 40 ppm
[8] = sprayed 24 h after inoculation, unmarked compounds (no asterisk, not 40 or 10 ppm)
[9] = sprayed the day before inoculation, unmarked compounds (no asterisk, not 40 or 10 ppm)
[10] = sprayed the day before inoculation, 7 days at 20° C., unmarked compounds (no asterisk, not 40 or 10 ppm)

| Molecule | Test B disease rating (100 = 100% disease control, 0 = no disease control) (Plasmopara viticola; [5]) [%] | Test B disease rating (100 = 100% disease control, 0 = no disease control) (Plasmopara viticola; spray 24 h after inoculation, tested at 40 ppm) [%] | Test A disease rating (100 = 100% disease control, 0 = no disease control) [1, 6] [%] | Test E disease rating (100 = 100% disease control, 0 = no disease control) [2, 6] [%] | Test E disease rating (100 = 100% disease control, 0 = no disease control) [2, 7] [%] | Test C disease rating (100 = 100% disease control, 0 = no disease control) (Phytophthora infestans [3]; [6]) [%] | Test C disease rating (100 = 100% disease control, 0 = no disease control) (Phytophthora infestans [3]; [7]) [%] | Test D disease rating (100 = 100% disease control, 0 = no disease control) (Phytophthora infestans [4]) [%] | Test B disease rating (100 = 100% disease control, 0 = no disease control) (Plasmopara viticola; [8]) | Test A disease rating (100 = 100% disease control, 0 = no disease control) [1, 9] | Test E disease rating (100 = 100% disease control, 0 = no disease control) [2, 10] | Test C disease rating (100 = 100% disease control, 0 = no disease control) (Phytophthora infestans [3]; [9]) |
| --- | --- | --- | --- | --- | --- | --- | --- | --- | --- | --- | --- | --- |
| Cc1cc(C(F)(F)F)nn1CC(=O)N1CCC(c2nc(C(=O)N(C)C3c4ccccc4CCC3(C)C)cs2)CC1 (stereo not drawn) [Compound 236] | 61 | 100 | 97 | 0 | 0 | 62 | 100 | 99 |  |  |  |  |
| C[C@H](c1ccccc1)N(C)C(=O)c1csc(C2CCN(C(=O)Cc3cccc(OC(F)(F)F)c3)CC2)n1 [compound 49] | 83 |  | 97 | 85 |  | 67 |  |  |  |  |  |  |
| C[C@H](c1ccccc1)N(C)C(=O)c1csc(C2CCN(C(=O)Nc3cccc(C(F)(F)F)c3)CC2)n1 [compound 155] | 41 |  | 100 | 0 |  | 31 |  |  |  |  |  |  |
| CN(Cc1ccccc1)C(=O)c1csc(C2CCN(C(=O)Cc3ccccc3Cl)CC2)n1 [compound 161] | 14 |  | 0 | 42 |  | 15 |  |  |  |  |  |  |
| C[C@@H](NC(=O)c1csc(C2CCN(C(=O)Cc3ccccc3Cl)CC2)n1)c1ccccc1 [compound 261] |  |  |  |  |  |  |  |  | 0 | 93 | 21 | 31 |
| O=C(NCc1ccccc1)c1csc(C2CCN(C(=O)Cc3ccccc3Cl)CC2)n1 [compound 262] |  |  |  |  |  |  |  |  | 6 | 94 | 0 | 52 |
| O=C(NC1Cc2ccccc2C1)c1csc(C2CCN(C(=O)Cc3ccccc3Cl)CC2)n1 [compound 265] |  |  |  |  |  |  |  |  | 34 | 0 | 47 | 0 |
| O=C(Cc1ccccc1Cl)N1CCC(c2nc(C(=O)N3CCc4ccccc4C3)cs2)CC1 [compound 267] |  |  |  |  |  |  |  |  | 6 | 95 | 0 | 21 |
| CC1CCN(C(=O)c2csc(C3CCN(C(=O)Cc4ccccc4Cl)CC3)n2)CC1 [compound 268] |  |  |  |  |  |  |  |  | 6 | 0 | 0 | 36 |
| O=C(Cc1ccccc1Cl)N1CCC(c2nc(C(=O)N3CCCC3c3cccnc3)cs2)CC1 (stereo not drawn) [compound 269] |  |  |  |  |  |  |  |  | 40 | 0 | 0 | 0 |
| C[C@@H](NC(=O)c1csc(C2CCN(C(=O)Cc3cccc(C(F)(F)F)c3)CC2)n1)c1ccc(Br)cc1 [compound 270] |  |  |  |  |  |  |  |  | 0 | 0 | 0 | 0 |
| N-[(1R)-2,3-dihydro-1H-inden-1-yl]-N-methyl-2-[1-[[5-methyl-3-(trifluoromethyl)-1H-pyrazol-1-yl]acetyl]-4-piperidinyl]-4-thiazolecarboxamide [Compound 178] | 99 |  | 100 | 0 |  | 100 |  |  |  |  |  |  |
| N-methyl-1-[1-[[5-methyl-3-(trifluoromethyl)-1H-pyrazol-1-yl]acetyl]-4-piperidinyl]-N-[(1R)-1,2,3,4-tetrahydro-1-naphthalenyl]-1H-pyrazole-4-carboxamide [Compound 233] | 51 |  | 96 | 29 |  | 91 |  |  |  |  |  |  |
| N-methyl-2-[1-[[5-methyl-3-(trifluoromethyl)-1H-pyrazol-1-yl]acetyl]-4-piperidinyl]-N-(1,2,3,4-tetrahydro-1-naphthalenyl)-4-thiazolecarboxamide [Compound 188] | 6 |  | 90 | 86 |  | 29 |  |  |  |  |  |  |
| N-methyl-2-[1-[[5-methyl-3-(trifluoromethyl)-1H-pyrazol-1-yl]acetyl]-4-piperidinyl]-N-(1,2,3,4-tetrahydro-2-methyl-1-naphthalenyl)-4-thiazolecarboxamide [Compound 193] | 20 |  | 93 | 21 |  | 31 |  |  |  |  |  |  |
| N-methyl-2-[1-[[5-methyl-3-(trifluoromethyl)-1H-pyrazol-1-yl]acetyl]-4-piperidinyl]-N-[(1R)-1-phenylethyl]-4-thiazolecarboxamide [Compound 70] | 0 |  | 0 | 0 |  | 33 |  |  |  |  |  |  |
| N-methyl-2-[1-[[5-methyl-3-(trifluoromethyl)-1H-pyrazol-1-yl]acetyl]-4-piperidinyl]-N-[(1R)-1-phenylpropyl]-4-oxazolecarboxamide [Compound 152] | 0 |  | 0 | 0 |  | 0 |  |  |  |  |  |  |
| N-methyl-2-[1-[[5-methyl-3-(trifluoromethyl)-1H-pyrazol-1-yl]acetyl]-4-piperidinyl]-N-[(1R,4R)-1,2,3,4-tetrahydro-4-hydroxy-1-naphthalenyl]-4-thiazolecarboxamide [Compound 206] | 5 |  | 99 | 0 |  | 31 |  |  |  |  |  |  |
| N-methyl-2-[1-[[5-methyl-3-(trifluoromethyl)-1H-pyrazol-1-yl]acetyl]-4-piperidinyl]-N-[(1R,4S)-1,2,3,4-tetrahydro-4-hydroxy-1-naphthalenyl]-4-thiazolecarboxamide [Compound 191] | 17 |  | 97 | 0 |  | 90 |  |  |  |  |  |  |
| N-methyl-2-[4-[[5-methyl-3-(trifluoromethyl)-1H-pyrazol-1-yl]acetyl]-1-piperazinyl]-N-[(1R)-1,2,3,4-tetrahydro-1-naphthalenyl]-4-thiazolecarboxamide [Compound 220] | 0 |  | 0 | 0 |  | 0 |  |  |  |  |  |  |
